One may read the pIC50 as the negative decadic logarithm of the IC50, by convention in mol/L.

pIC50: −log10 of the molar value. Values joined by “and” are separate entries in the source; they are usually repeats but may differ in a detail not shown here. Equal entries are not always repeated.

The values that follow come from US20240351988A1, “ARYL HYDROCARBON RECEPTOR MODULATORS AND THEIR USE IN THE TREATMENT OF DISEASES AND DISORDERS” (Allianthera (Suzhou) Biopharmaceutical Co., Ltd., priority 2021, published 2024).

For this test, the target named is T1, Human Aryl Hydrocarbon Receptor (AhR) (Homo sapiens, UniProt P35869).
T1 construct: purchased INDIGO Bioscience #1B06001-32; host or cells: AhR Reporter Cell (kit's proprietary reporter cells)
T1 sequence (P35869 11-848): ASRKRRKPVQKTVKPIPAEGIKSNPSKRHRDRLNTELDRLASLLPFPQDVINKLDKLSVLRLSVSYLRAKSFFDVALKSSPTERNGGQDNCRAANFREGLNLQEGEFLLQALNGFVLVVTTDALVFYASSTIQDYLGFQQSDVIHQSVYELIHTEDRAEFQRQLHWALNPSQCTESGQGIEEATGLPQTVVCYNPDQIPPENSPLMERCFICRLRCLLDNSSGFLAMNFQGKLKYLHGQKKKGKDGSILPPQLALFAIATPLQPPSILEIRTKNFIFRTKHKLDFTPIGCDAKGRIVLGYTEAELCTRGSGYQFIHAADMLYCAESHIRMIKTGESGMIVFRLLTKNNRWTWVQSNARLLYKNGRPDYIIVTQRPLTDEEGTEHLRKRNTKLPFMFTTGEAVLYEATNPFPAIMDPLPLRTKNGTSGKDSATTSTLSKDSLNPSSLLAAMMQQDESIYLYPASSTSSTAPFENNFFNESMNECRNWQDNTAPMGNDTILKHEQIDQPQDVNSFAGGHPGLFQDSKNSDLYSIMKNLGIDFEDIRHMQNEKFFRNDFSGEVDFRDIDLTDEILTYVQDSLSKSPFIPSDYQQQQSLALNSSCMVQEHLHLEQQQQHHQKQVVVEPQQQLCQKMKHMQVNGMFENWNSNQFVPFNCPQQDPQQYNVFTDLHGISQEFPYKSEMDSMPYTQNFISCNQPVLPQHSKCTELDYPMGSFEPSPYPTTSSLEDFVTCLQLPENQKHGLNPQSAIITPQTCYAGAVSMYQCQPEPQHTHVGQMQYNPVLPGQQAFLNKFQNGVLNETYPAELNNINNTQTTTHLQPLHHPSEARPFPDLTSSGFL
In words: AHR antagonist reporter assay in human cell line (INDIGO AhR Reporter Assay System, kynurenic acid activated). The format is cell-based. The following applies: 200 μM kynurenic acid, 24 hours, luciferase; read-out: AhR Reporter Assay KA Antagonist Mode: IC50. Here is the method: The AhR reporter assay was performed following the protocol of the Human Aryl Hydrocarbon Receptor (AhR) Reporter Assay System (INDIGO Bioscience, #1B06001-32). AhR Reporter Cell was thawed and pre-incubated in Cell Recovery Medium (CRM) for 6 hours. The media was then removed and the cells were incubated with Compound Screening Medium (CSM) supplemented with 200 μM kynurenic acid for 24 hours in the absence (negative control) or presence of increasing concentrations of test compounds (typical dilution: […], 3.2 nM, 16 nM, 80 nM, 400 nM, 2 μM, 10 μM in duplicates). For positive inhibition control, cells activated with 200 μM kynurenic acid were incubated in the presence of literature AHR antagonists; alternatively un-activated cells were used as positive inhibition control. Following 24 hours incubation, the media was removed and Luciferase Detection Reagent (LDR) added. The firefly luciferase activity was quantified using a plate reader. Results were normalized by positive and negative controls.
Consider `CN(C)C(=O)CNC(=O)c1cc(-c2ccc(Cl)cc2)nn(-c2cccc(F)c2)c1=O` [Compound 2], for which the pIC50 was 6.40 to 7.00.

As to `CC(=O)N(C)CC(C)NC(=O)c1cc(-c2ccc(Cl)cc2)nn(-c2cccc(F)c2)c1=O` (stereo not shown) [Compound 3], the pIC50 was less than 6.40.

Regarding `NC(=O)c1cc(-c2ccc(Cl)cc2)nn(-c2cccc(F)c2)c1=O` [Compound 4], the pIC50 is less than 6.40.

Consider `O=C(NC1CNC1)c1cc(-c2ccc(Cl)cc2)nn(-c2cccc(F)c2)c1=O` [Compound 5], for which the pIC50 is less than 6.40.

On to `COCCNC(=O)c1cc(-c2ccc(Cl)cc2)nn(-c2cccc(F)c2)c1=O` [Compound 6], for which the pIC50 is less than 6.40.

Consider `COCC(C)NC(=O)c1cc(-c2ccc(Cl)cc2)nn(-c2cccc(F)c2)c1=O` (stereo not shown) [Compound 7], for which the pIC50 was greater than 7.00.

Consider `NC(=O)CNC(=O)c1cc(-c2ccc(Cl)cc2)nn(-c2cccc(F)c2)c1=O` [Compound 8], for which the pIC50 was less than 6.40.

For the compound `CNC(=O)CNC(=O)c1cc(-c2ccc(Cl)cc2)nn(-c2cccc(F)c2)c1=O` [Compound 9], the pIC50 is less than 6.40.

Regarding `CC(NC(=O)c1cc(-c2ccc(Cl)cc2)nn(-c2cccc(F)c2)c1=O)C(=O)O` (stereo not shown) [Compound 10], the pIC50 is less than 6.40.

With `CC(NC(=O)c1cc(-c2ccc(Cl)cc2)nn(-c2cccc(F)c2)c1=O)C(N)=O` (stereo not shown) [Compound 11], the pIC50 was less than 6.40.

With `CC(CN)NC(=O)c1cc(-c2ccc(Cl)cc2)nn(-c2cccc(F)c2)c1=O` (stereo not shown) [Compound 14], the pIC50 was less than 6.40.

Regarding `CNCC(C)NC(=O)c1cc(-c2ccc(Cl)cc2)nn(-c2cccc(F)c2)c1=O` (stereo not shown) [Compound 15], the pIC50 was less than 6.40.

For the compound `CC(CN(C)C)NC(=O)c1cc(-c2ccc(Cl)cc2)nn(-c2cccc(F)c2)c1=O` (stereo not shown) [Compound 16], the pIC50 was less than 6.40.

For the compound `NCCNC(=O)c1cc(-c2ccc(Cl)cc2)nn(-c2cccc(F)c2)c1=O` [Compound 17], the pIC50 is less than 6.40.

On to `CNCCNC(=O)c1cc(-c2ccc(Cl)cc2)nn(-c2cccc(F)c2)c1=O` [Compound 18], for which the pIC50 was less than 6.40.

In the case of `CN(C)CCNC(=O)c1cc(-c2ccc(Cl)cc2)nn(-c2cccc(F)c2)c1=O` [Compound 19], the pIC50 was less than 6.40.

With `CC(=O)N(C)CCNC(=O)c1cc(-c2ccc(Cl)cc2)nn(-c2cccc(F)c2)c1=O` [Compound 20], the pIC50 is less than 6.40.

As for `CNC(=O)c1cc(-c2ccc(Cl)cc2)nn(-c2cccc(F)c2)c1=O` [Compound 21], the pIC50 was less than 6.40.

Take `CN(CCO)C(=O)c1cc(-c2ccc(Cl)cc2)nn(-c2cccc(F)c2)c1=O` [Compound 22]: the pIC50 is less than 6.40.

In the case of `CN(CCN)C(=O)c1cc(-c2ccc(Cl)cc2)nn(-c2cccc(F)c2)c1=O` [Compound 23], the pIC50 is less than 6.40.

For the compound `O=C(NC1COC1)c1cc(-c2ccc(Cl)cc2)nn(-c2cccc(F)c2)c1=O` [Compound 24], the pIC50 was less than 6.40.

As for `O=C(NC1CCCCNC1=O)c1cc(-c2ccc(Cl)cc2)nn(-c2cccc(F)c2)c1=O` (stereo not shown) [Compound 28], the pIC50 is greater than 7.00.

Consider `CC(=O)N1CC(NC(=O)c2cc(-c3ccc(Cl)cc3)nn(-c3cccc(F)c3)c2=O)C1` [Compound 30], for which the pIC50 was less than 6.40.

For the compound `Cn1cc(-n2nc(-c3ccc(Cl)cc3)cc(C(=O)NCC(=O)O)c2=O)cn1` [Compound 33], the pIC50 is less than 6.40.

Take `Cn1cc(-n2nc(-c3ccc(Cl)cc3)cc(C(=O)NCC(N)=O)c2=O)cn1` [Compound 34]: the pIC50 is less than 6.40.

In the case of `CNC(=O)CNC(=O)c1cc(-c2ccc(Cl)cc2)nn(-c2cnn(C)c2)c1=O` [Compound 35], the pIC50 was less than 6.40.

Regarding `CN(C)C(=O)CNC(=O)c1cc(-c2ccc(Cl)cc2)nn(-c2cnn(C)c2)c1=O` [Compound 36], the pIC50 is less than 6.40.

As for `CC(NC(=O)c1cc(-c2ccc(Cl)cc2)nn(-c2cnn(C)c2)c1=O)C(=O)O` (stereo not shown) [Compound 37], the pIC50 was less than 6.40.

In the case of `CNCCNC(=O)c1cc(-c2ccc(Cl)cc2)nn(-c2cnn(C)c2)c1=O` [Compound 46], the pIC50 is less than 6.40.

As for `CN(C)CCNC(=O)c1cc(-c2ccc(Cl)cc2)nn(-c2cnn(C)c2)c1=O` [Compound 47], the pIC50 is less than 6.40.

As for `COC[C@H](C)NC(=O)c1cc(-c2ccc(S(C)(=O)=O)cc2)nn(-c2cnn(C)c2)c1=O` [Compound 66], the pIC50 was less than 6.40.

With `COC[C@H](C)NC(=O)c1cc(-c2ccc(C)cn2)nn(-c2cnn(C)c2)c1=O` [Compound 67], the pIC50 was < 6.40 and > 7.00.

As to `COC[C@H](C)NC(=O)c1cc(-c2ccc(C)cc2)nn(-c2cnn(C)c2)c1=O` [Compound 68], the pIC50 is 6.40 to 7.00.

As to `COC[C@H](C)NC(=O)c1cc(-c2ccc(OC(F)(F)F)cc2)nn(-c2cnn(C)c2)c1=O` [Compound 69], the pIC50 was greater than 7.00.

Take `COC[C@H](C)NC(=O)c1cc(-c2ccc(OC)cc2)nn(-c2cnn(C)c2)c1=O` [Compound 74]: the pIC50 was 6.40 to 7.00.

Turning to `COC[C@H](C)NC(=O)c1cc(-c2ccc(N(C)C)nc2)nn(-c2cnn(C)c2)c1=O` [Compound 75], the pIC50 is less than 6.40.

Take `COC[C@H](C)NC(=O)c1cc(-c2cnc(C3CC3)s2)nn(-c2cnn(C)c2)c1=O` [Compound 77]: the pIC50 is less than 6.40.

As for `COC[C@H](C)NC(=O)c1cc(-c2cnc(C)s2)nn(-c2cnn(C)c2)c1=O` [Compound 79], the pIC50 is less than 6.40.

For the compound `COC[C@H](C)NC(=O)c1cc(-c2cnc(C(F)(F)F)s2)nn(-c2cnn(C)c2)c1=O` [Compound 80], the pIC50 was less than 6.40.

In the case of `COC[C@H](C)NC(=O)c1cc(-c2ccc(C#N)cc2)nn(-c2cnn(C)c2)c1=O` [Compound 83], the pIC50 was less than 6.40.

Take `COC[C@H](C)NC(=O)c1cc(-c2ccc(Cl)cc2F)nn(-c2cnn(C)c2)c1=O` [Compound 85]: the pIC50 is less than 6.40.

With `COC[C@H](C)NC(=O)c1cc(-c2cnc(C(C)=O)s2)nn(-c2cnn(C)c2)c1=O` [Compound 87], the pIC50 is less than 6.40.

`COC[C@H](C)NC(=O)c1cc(-c2cnc(C(C)C)s2)nn(-c2cnn(C)c2)c1=O` [Compound 88]: the pIC50 was greater than 7.00.

Take `COC[C@H](C)NC(=O)c1cc(-c2cnc(N(C)C)nc2)nn(-c2cnn(C)c2)c1=O` [Compound 89]: the pIC50 is 6.40 to 7.00.

As for `COC[C@H](C)NC(=O)c1cc(-c2cnc(N)nc2)nn(-c2cnn(C)c2)c1=O` [Compound 91], the pIC50 is less than 6.40.

With `CNC(=O)C(C)(C)NC(=O)c1cc(-c2ccc(Cl)cc2)nn(-c2cccc(F)c2)c1=O` [Compound 96], the pIC50 was greater than 7.00.

Consider `COC[C@H](C)NC(=O)c1cc(-c2ccc(F)c(Cl)c2)nn(-c2cnn(C)c2)c1=O` [Compound 102], for which the pIC50 is less than 6.40.

As for `COC[C@H](C)NC(=O)c1cc(-c2ccc(F)c(F)c2)nn(-c2cnn(C)c2)c1=O` [Compound 103], the pIC50 was less than 6.40.

In the case of `COC[C@H](C)NC(=O)c1cc(-c2cccc(Cl)c2)nn(-c2cnn(C)c2)c1=O` [Compound 104], the pIC50 is greater than 7.00.

As for `COC[C@H](C)NC(=O)c1cc(-c2cccc(F)c2)nn(-c2cnn(C)c2)c1=O` [Compound 105], the pIC50 is less than 6.40.

Take `COC[C@H](C)NC(=O)c1cc(-c2ccc(F)cc2Cl)nn(-c2cnn(C)c2)c1=O` [Compound 107]: the pIC50 is less than 6.40.

On to `COC[C@H](C)NC(=O)c1cc(-c2ccccc2F)nn(-c2cnn(C)c2)c1=O` [Compound 108], for which the pIC50 is less than 6.40.

Consider `COC[C@H](C)NC(=O)c1cc(-c2ccc(F)cc2F)nn(-c2cnn(C)c2)c1=O` [Compound 109], for which the pIC50 is less than 6.40.

`COC[C@H](C)NC(=O)c1cc(N2CC3(CCCC3)C2)nn(-c2cnn(C)c2)c1=O` [Compound 110]: the pIC50 is less than 6.40.

`COC[C@H](C)NC(=O)c1cc(-c2ccc3c(c2)CCCO3)nn(-c2cnn(C)c2)c1=O` [Compound 111]: the pIC50 is less than 6.40.

`COC[C@H](C)NC(=O)c1cc(N2CCC(C)CC2)nn(-c2cnn(C)c2)c1=O` [Compound 114]: the pIC50 was less than 6.40.

For the compound `COC[C@H](C)NC(=O)c1cc(C2CCCCC2)nn(-c2cnn(C)c2)c1=O` [Compound 115], the pIC50 was less than 6.40.

For `COC[C@H](C)NC(=O)c1cc(N2CCC3(CCCC3)CC2)nn(-c2cnn(C)c2)c1=O` [Compound 116], the pIC50 is less than 6.40.
